Drawing on paper PMC9072656, “Inhibition of Human Sulfotransferases by Phthalate Monoesters” (Frontiers in Endocrinology, 2022), this text covers IC50 and Ki for six compounds.

Common to all, as to assay type: biochemical
The target of experiment [1] is T1, SULT1B1 (Homo sapiens, UniProt O43704).
T1 construct: recombinant, purchased from BD Gentest
Description: inhibition of 4-nitrophenol sulfation, UPLC-UV. An excerpt: inhibition of 4-nitrophenol sulfation, UPLC-UV on SULT1B1

Experiment [2] has as its target T2, SULT1E1 (Homo sapiens, UniProt P49888).
T2 construct: recombinant, purchased from BD Gentest
T2 sequence (P49888 1-294): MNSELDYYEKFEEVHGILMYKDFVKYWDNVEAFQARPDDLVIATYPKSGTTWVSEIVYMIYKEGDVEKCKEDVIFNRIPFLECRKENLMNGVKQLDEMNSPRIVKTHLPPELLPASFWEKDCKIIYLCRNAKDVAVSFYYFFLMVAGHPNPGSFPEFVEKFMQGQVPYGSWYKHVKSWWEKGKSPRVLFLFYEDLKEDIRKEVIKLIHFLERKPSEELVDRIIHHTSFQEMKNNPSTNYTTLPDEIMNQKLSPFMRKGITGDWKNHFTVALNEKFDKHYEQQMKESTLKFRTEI
Description: inhibition of 4-nitrophenol sulfation, UPLC-UV. An excerpt: inhibition of 4-nitrophenol sulfation, UPLC-UV on SULT1E1

The next experiment deals with T3, SULT1A1 (Homo sapiens, UniProt P50225).
T3 construct: recombinant, purchased from BD Gentest
T3 sequence (P50225 whole entry): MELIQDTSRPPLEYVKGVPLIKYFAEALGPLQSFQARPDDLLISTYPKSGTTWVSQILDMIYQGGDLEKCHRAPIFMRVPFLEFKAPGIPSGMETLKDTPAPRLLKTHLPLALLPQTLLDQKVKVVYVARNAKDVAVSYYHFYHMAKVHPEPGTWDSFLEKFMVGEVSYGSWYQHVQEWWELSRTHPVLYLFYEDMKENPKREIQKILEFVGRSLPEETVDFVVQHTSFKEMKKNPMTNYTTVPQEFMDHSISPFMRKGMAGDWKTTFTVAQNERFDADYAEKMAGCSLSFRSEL
Description: inhibition of 4-nitrophenol sulfation, UPLC-UV. The source says: inhibition of 4-nitrophenol sulfation, UPLC-UV on SULT1A1

The target of experiment [3] is T1, SULT1B1. Description: inhibition of 4-nitrophenol sulfation, UPLC-UV, Lineweaver-Burk slope replot.
The target in experiment [4] is T2, SULT1E1. The experiment is described as above.

T1 sequence (O43704 whole entry): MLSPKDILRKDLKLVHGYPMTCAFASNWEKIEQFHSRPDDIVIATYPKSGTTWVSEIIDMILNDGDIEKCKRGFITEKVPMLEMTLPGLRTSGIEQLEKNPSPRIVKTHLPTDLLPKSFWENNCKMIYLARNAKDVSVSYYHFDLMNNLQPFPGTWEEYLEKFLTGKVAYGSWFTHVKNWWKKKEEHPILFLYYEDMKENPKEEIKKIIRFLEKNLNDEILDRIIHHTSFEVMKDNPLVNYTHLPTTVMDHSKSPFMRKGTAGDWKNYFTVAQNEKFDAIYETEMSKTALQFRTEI

Consider `O=C(O)c1ccccc1C(=O)OC1CCCCC1` [MCHP], for which the midpoint of inhibition on SULT1B1 [1], the IC50, lay at 12.8 µM.
Regarding `CCCCCCCCOC(=O)c1ccccc1C(=O)O` [MOP], the half-inhibitory concentration (IC50) (in general, the concentration needed to halve the response being measured) against SULT1E1 [2] turned out to be 1.77 µM; against SULT1A1 it was 5.61 µM; at SULT1B1 [1], 2.73 µM. Also, the inhibitory constant (Ki) (commonly a measure of affinity in units of concentration, obtained from inhibition or displacement) at SULT1B1 [3] turned out to be 2.23 µM; at SULT1E1 [4], 5.54 µM.
For the compound `CCCCCCOC(=O)c1ccccc1C(=O)O` [MHP], the concentration for half-maximal inhibition (IC50) on SULT1E1 [2] is 4.54 µM; against SULT1A1, 17.1 µM; against SULT1B1 [1] it was 11.6 µM.
`O=C(O)c1ccccc1C(=O)OCc1ccccc1` [MBZP] showed an IC50 at SULT1A1 of 0.25 µM.
For `CCCCC(CC)COC(=O)c1ccccc1C(=O)O` (centres unmarked) [MEHP], the half-maximal inhibitory concentration (IC50) on SULT1E1 [2] worked out at 1.73 µM; at SULT1A1 it was 2.32 µM; on SULT1B1 [1], 13.9 µM.
At SULT1B1 [1], `CCCCOC(=O)c1ccccc1C(=O)O` [MBP] registered an IC50 of 8.49 µM.
